Test results reported in patent US10765114B2, “4-amino-6-(pyridyl and 2-substitutedphenyl)-picolinates and 6-amino-2-(pyridyl and 2-substitutedphenyl)-pyrimidine-4-carboxylates and their use as herbicides” (Dow AgroSciences LLC, priority 2013, dated 2020).
Where two headings read alike, the source gives them in different places.

Columns and labels:
[1] = tested on: Key Broadleaf Weed and Crop Species; test: Post-Emergent Test II (Table 5); assay type: in vivo; conditions: post-emergence, 336 h; for pest or weed control at 70 g/ha: application rate 70 (kg ai/ha; footnote: g ai/ha); for pest or weed control at 140 g/ha: application rate 140 (kg ai/ha; footnote: g ai/ha)
In short: (§1)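 Plants at first or second true-leaf stage, grown 7-21 days in greenhouse, were sprayed post-emergence at 187 L/ha with compounds in acetone/DMSO/water/crop oil/surfactant mixture at the high rate and ½× to 1/16× dilutions. Injury scored visually after 14 days, 0 (none) to 100% (complete kill), versus untreated plants.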

[2] = tested on: Key Grass and Sedge Weeds as well as Grass Crops; test: Post-Emergent Test II (Table 6); assay type: in vivo; conditions: post-emergence, 336 h, 14 days after application; for pest or weed control at 70 g/ha: 70 g ai/ha; for pest or weed control at 140 g/ha: 140 g ai/ha
In short: as §1

[3] = Abutilon theophrasti, ABUTH: velvetleaf (Abutilon theophrasti), read-out: Visual Growth Reduction (%) 14 Days After Application ABUTH
[4] = Amaranthus retroflexus, AMARE: redroot pigweed (Amaranthus retroflexus), read-out: Visual Growth Reduction (%) 14 Days After Application AMARE
[5] = Brassica napus, BRSSS: oilseed rape, canola (Brassica napus), read-out: Visual Growth Reduction (%) 14 Days After Application BRSSS
[6] = Chenopodium album, CHEAL: lambsquarters (Chenopodium album), read-out: Visual Growth Reduction (%) 14 Days After Application CHEAL
[7] = Euphorbia heterophylla, EPHHL: wild poinsettia (Euphorbia heterophylla), read-out: Visual Growth Reduction (%) 14 Days After Application EPHHL
[8] = Helianthus annuus, HELAN: sunflower (Helianthus annuus), read-out: Visual Growth Reduction (%) 14 Days After Application HELAN
[9] = Viola tricolor, VIOTR: wild pansy (Viola tricolor), read-out: Visual Growth Reduction (%) 14 Days After Application VIOTR
[10] = CYPSS, read-out: Visual Growth Reduction (%) 14 Days After Application CYPSS
[11] = DIGSA: crabgrass (Digitaria sanguinalis), read-out: Visual Growth Reduction (%) 14 Days After Application DIGSA
[12] = ECHSS, read-out: Visual Growth Reduction (%) 14 Days After Application ECHSS
[13] = ORYSS (crop), read-out: Visual Growth Reduction (%) 14 Days After Application ORYSS
[14] = SORVU: grain sorghum (Sorghum vulgare), read-out: Visual Growth Reduction (%) 14 Days After Application SORVU
[15] = TRZSS (crop), read-out: Visual Growth Reduction (%) 14 Days After Application TRZSS
[16] = ZEAMX: maize, corn (Zea mays), read-out: Visual Growth Reduction (%) 14 Days After Application ZEAMX
[17] = SETFA: giant foxtail (Setaria faberi), read-out: Visual Growth Reduction (%) 14 Days After Application SETFA

Compound	pest or weed control at 70 g/ha [1, 3] [%]	pest or weed control at 140 g/ha [1, 3] [%]	pest or weed control at 70 g/ha [1, 4] [%]	pest or weed control at 140 g/ha [1, 4] [%]	pest or weed control at 70 g/ha [1, 5] [%]	pest or weed control at 140 g/ha [1, 5] [%]	pest or weed control at 70 g/ha [1, 6] [%]	pest or weed control at 140 g/ha [1, 6] [%]	pest or weed control at 70 g/ha [1, 7] [%]	pest or weed control at 140 g/ha [1, 7] [%]	pest or weed control at 70 g/ha [1, 8] [%]	pest or weed control at 140 g/ha [1, 8] [%]	pest or weed control at 70 g/ha [1, 9] [%]	pest or weed control at 140 g/ha [1, 9] [%]	pest or weed control at 70 g/ha [2, 10] [%]	pest or weed control at 140 g/ha [2, 10] [%]	pest or weed control at 70 g/ha [2, 11] [%]	pest or weed control at 140 g/ha [2, 11] [%]	pest or weed control at 70 g/ha [2, 12] [%]	pest or weed control at 140 g/ha [2, 12] [%]	other results
COC(=O)c1nc(-c2ccc(F)nc2)c(F)c(N)c1Cl [Compound 23]	75 to 84	85 to 94	95 to 100	95 to 100	45 to 59	75 to 84	95 to 100	95 to 100	75 to 84	85 to 94	85 to 94	85 to 94	30 to 44	45 to 59	0 to 29	0 to 29	30 to 44	45 to 59	60 to 74	75 to 84	pest or weed control at 70 g/ha [2, 13]: 0 to 29%; pest or weed control at 140 g/ha [2, 13]: 0 to 29%; pest or weed control at 70 g/ha [2, 14]: 0 to 29%; pest or weed control at 140 g/ha [2, 14]: 0 to 29%; pest or weed control at 70 g/ha [2, 15]: 0 to 29%; pest or weed control at 140 g/ha [2, 15]: 0 to 29%; pest or weed control at 70 g/ha [2, 16]: 0 to 29%; pest or weed control at 140 g/ha [2, 16]: 45 to 59%; melting point: 167 to 168 °C
COC(=O)c1nc(-c2ccc(C(F)(F)F)nc2)nc(N)c1OC [Compound 43, methyl 6-amino-5-methoxy-2-(6-(trifluoromethyl)pyridin-3-yl)pyrimidine-4-carboxylate]	0 to 29	0 to 29	30 to 44	60 to 74	30 to 44	45 to 59	0 to 29	0 to 29	30 to 44	60 to 74	0 to 29	30 to 44	0 to 29	0 to 29	0 to 29	60 to 74	30 to 44	60 to 74	0 to 29	0 to 29	pest or weed control at 70 g/ha [2, 13]: 0 to 29%; pest or weed control at 140 g/ha [2, 13]: 0 to 29%; pest or weed control at 70 g/ha [2, 17]: 0 to 29%; pest or weed control at 140 g/ha [2, 17]: 0 to 29%; pest or weed control at 70 g/ha [2, 14]: 0 to 29%; pest or weed control at 140 g/ha [2, 14]: 0 to 29%; pest or weed control at 70 g/ha [2, 15]: 0 to 29%; pest or weed control at 140 g/ha [2, 15]: 0 to 29%; pest or weed control at 70 g/ha [2, 16]: 0 to 29%; pest or weed control at 140 g/ha [2, 16]: 0 to 29%; melting point: 148 to 149 °C
COC(=O)c1nc(-c2c(F)cc(Cl)c(F)c2C)cc(N)c1Cl [Compound 38, methyl 4-amino-3-chloro-6-(4-chloro-3,6-difluoro-2-methylphenyl)picolinate]	95 to 100	95 to 100	95 to 100	95 to 100	95 to 100	95 to 100	85 to 94	95 to 100	30 to 44	45 to 59	75 to 84	95 to 100	75 to 84	85 to 94	0 to 29	0 to 29	0 to 29	0 to 29	0 to 29	0 to 29	pest or weed control at 70 g/ha [2, 13]: 0 to 29%; pest or weed control at 140 g/ha [2, 13]: 0 to 29%; pest or weed control at 70 g/ha [2, 17]: 0 to 29%; pest or weed control at 140 g/ha [2, 17]: 0 to 29%; pest or weed control at 70 g/ha [2, 14]: 0 to 29%; pest or weed control at 140 g/ha [2, 14]: 0 to 29%; pest or weed control at 70 g/ha [2, 15]: 45 to 59%; pest or weed control at 140 g/ha [2, 15]: 60 to 74%; pest or weed control at 70 g/ha [2, 16]: 0 to 29%; pest or weed control at 140 g/ha [2, 16]: 0 to 29%; melting point: 144 to 146 °C
